Laboratory results: patent US8778966B2, “Quinolinone derivatives as PARP and tank inhibitors” (Janssen Pharmaceutica, NV, priority 2007, dated 2014)

System: PC-3 cells
Experiment: Antiproliferative activity, Alamar Blue assay, PC-3 cells
Assay type: cell-based, human
Conditions: Homo sapiens, PC-3, PC3 cells, Alamar Blue; read-out: PC3 antiproliferative activity pIC50 (converted)
How it was run: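 PC-3 cells seeded at 4.5×10^3 cells/ml, left to adhere 24 hr, then exposed to compound for 4 days. Resazurin (Alamar Blue) added for a further 24 hrs at 37° C; fluorescence read at 540/590 nm. Viability as % of untreated control, mean of 3 wells; IC50 by probit analysis, reported as pIC50.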

Row | SMILES | IC50
1 | CCc1cc2ccc([C@@](C)(C#N)Cc3cccc(N(C)C)c3)cc2[nH]c1=O (single isomer, unassigned) [Compound 258] | 316 nM
2 | CCc1cc2ccc([C@](C)(C#N)Cc3cccc(N(C)C)c3)cc2[nH]c1=O (single isomer, unassigned) [Compound 259] | 10000 nM
3 | CCC[C@@](C#N)(Cc1ccccc1)c1ccc2cc(CC)c(=O)[nH]c2c1 (single isomer, unassigned) [Compound 263] | 5010 nM
4 | CCC[C@](C#N)(Cc1ccccc1)c1ccc2cc(CC)c(=O)[nH]c2c1 (single isomer, unassigned) [Compound 264] | 10000 nM
5 | CCc1cc2ccc([C@@](C)(C#N)Cc3cccc(C#N)c3)cc2[nH]c1=O (single isomer, unassigned) [Compound 268] | 10000 nM
6 | CCc1cc2ccc([C@](C)(C#N)Cc3cccc(C#N)c3)cc2[nH]c1=O (single isomer, unassigned) [Compound 269] | 398 nM
7 | C#Cc1cccc(C[C@](C)(C#N)c2ccc3cc(CC)c(=O)[nH]c3c2)c1 [Compound 2] | 10000 nM
8 | C#Cc1cccc(C[C@@](C)(C#N)c2ccc3cc(CC)c(=O)[nH]c3c2)c1 [Compound 3] | 100 nM
9 | CCc1cc2ccc(C(C)(C#N)Cc3cccc(OC[C@@H](O)CO)c3)cc2[nH]c1=O (stereo partly shown) [Compound 56] | 6310 nM
10 | CCc1cc2ccc(C(C)(C#N)Cc3cccc(CCC#N)c3)cc2[nH]c1=O (stereo not shown) [Compound 169] | 3160 nM
11 | CCc1cc2ccc(C(C)(C#N)Cc3cccc(CNS(C)(=O)=O)c3)cc2[nH]c1=O (stereo not shown) [Compound 170] | 10000 nM
12 | C=Cc1cccc(CC(C)(C#N)c2ccc3cc(CC)c(=O)[nH]c3c2)c1 (stereo not shown) [Compound 172] | 631 nM
13 | CCc1cc2cc(F)c(C(C)(C#N)Cc3cccc(C#N)c3)cc2[nH]c1=O (stereo not shown) [Compound 175] | 1000 nM
14 | CCc1c(C)c2ccc(C(C)(C#N)Cc3cccc(C#N)c3)cc2[nH]c1=O (stereo not shown) [Compound 181] | 3980 nM
15 | CCc1cc2cc(OCCOC)c(C(C)(C#N)Cc3cccc(C#N)c3)cc2[nH]c1=O (stereo not shown) [Compound 182] | 5010 nM
16 | CCc1cc2ccc(C(C)(C#N)Cc3cccc(C#CCO)c3)cc2[nH]c1=O (stereo not shown) [Compound 183] | 316 nM
17 | CCc1cc2ccc(C(F)(C#N)Cc3ccccc3)cc2[nH]c1=O (stereo not shown) [Compound 187] | 7940 nM
18 | CCc1cc2ccc(C(C)(C#N)CN(C)Cc3ccccc3)cc2[nH]c1=O (stereo not shown) [Compound 189] | 3160 nM
19 | CCc1cc2ccc(C(C)(C#N)C(C)c3ccccc3)cc2[nH]c1=O (stereo not shown) [Compound 198] | 2000 nM

Row | SMILES | IC50
20 | CCc1cc2ccc([C@](C)(C#N)[C@@H](C)c3ccccc3)cc2[nH]c1=O [Compound 199] | 10000 nM
21 | CCc1cc2ccc([C@](C)(C#N)[C@H](C)c3ccccc3)cc2[nH]c1=O [Compound 200] | 1000 nM
22 | CCc1cc2ccc(C(C)(C#N)Cc3cccc(C#C[Si](C)(C)C)n3)cc2[nH]c1=O (stereo not shown) [Compound 210] | 501 nM
23 | C#Cc1cccc(CC(C)(C#N)c2ccc3cc(CC)c(=O)[nH]c3c2)n1 (stereo not shown) [Compound 211] | 501 nM
24 | CCc1cc2ccc(C(C)(C#N)Cc3cccc(N(C)C)n3)cc2[nH]c1=O (stereo not shown) [Compound 213] | 501 nM
25 | CCc1cc2ccc(C(C)(C#N)Cc3cccc(I)n3)cc2[nH]c1=O (stereo not shown) [Compound 214] | 631 nM
26 | CCOC(=O)c1cccc(CC(C)(C#N)c2ccc3cc(CC)c(=O)[nH]c3c2)n1 (stereo not shown) [Compound 215] | 6310 nM
27 | CCc1cc2ccc(C(C)(C#N)Cc3cccc(COC)n3)cc2[nH]c1=O (stereo not shown) [Compound 216] | 10000 nM
28 | CCc1cc2ccc(C(C)(C#N)Cc3cccc(OCCOC)n3)cc2[nH]c1=O (stereo not shown) [Compound 219] | 2510 nM
29 | CCc1cc2ccc(C(C)(C#N)Cc3cccc(CN)n3)cc2[nH]c1=O (stereo not shown) [Compound 221] | 1000 nM
30 | CCc1cc2ccc(C(C)(C#N)Cc3cccc(OCCO)c3)cc2[nH]c1=O (stereo not shown) [Compound 262] | 501 nM
31 | CCc1cc2ccc(C(C)(C#N)CCOc3cccc(C(F)(F)F)c3)cc2[nH]c1=O (stereo not shown) [Compound 274] | 3980 nM
32 | CCc1cc2ccc(C(C)(C#N)Cc3cccc(CN)c3)cc2[nH]c1=O (stereo not shown) [Compound 290] | 501 nM
33 | CCc1cc2ccc(C(C)(C#N)Cc3cccc(/C=C/S(C)(=O)=O)c3)cc2[nH]c1=O (stereo not shown) [Compound 292] | 501 nM
34 | CCc1c(Cl)c2ccc(C(C)(C#N)Cc3cccc(C#N)c3)cc2[nH]c1=O (stereo not shown) [Compound 293] | 6310 nM
35 | CCc1cc2cc(OC)c(C(C)(C#N)Cc3ccccc3)cc2[nH]c1=O (stereo not shown) [Compound 294] | 10000 nM
36 | CCc1cc2ccc(C(C)(C#N)Cc3cccc(C#CCOC)c3)cc2[nH]c1=O (stereo not shown) [Compound 297] | 1000 nM
37 | CCc1cc2ccc(C(C)(C#N)Cc3cccc(C#CCN(C)C)c3)cc2[nH]c1=O (stereo not shown) [Compound 298] | 6310 nM
38 | CCc1cc2ccc(C(C)(C#N)CNCc3cccc(C#N)c3)cc2[nH]c1=O (stereo not shown) [Compound 301] | 10000 nM

Other lines, results leading:

Row | IC50 | SMILES
39 | 10000 nM | CCc1cc2ccc([C@](C)(C#N)C[C@@H]3Cc4cc(C)ccc4O3)cc2[nH]c1=O (single isomer, unassigned) [Compound 400]
40 | 2000 nM | CCc1cc2ccc(C(C)(C#N)Cc3cnc(Cl)nc3Cl)cc2[nH]c1=O (stereo not shown) [Compound 306]
41 | 316 nM | COc1cc(OC)nc(CC(C)(C#N)c2ccc3cc(C)c(=O)[nH]c3c2)n1 (stereo not shown) [Compound 308]
42 | 2000 nM | CCOc1cc(OCC)nc(CC(C)(C#N)c2ccc3cc(CC)c(=O)[nH]c3c2)n1 (stereo not shown) [Compound 309]
43 | 631 nM | CCc1cc2ccc(C(C)(C#N)Cc3cccc(Cl)n3)cc2[nH]c1=O (stereo not shown) [Compound 310]
44 | 7940 nM | CCc1cc2ccc(C(C)(C#N)Cc3ncc(C)c(OC)c3C)cc2[nH]c1=O (stereo not shown) [Compound 311]
45 | 7940 nM | CCc1cc2ccc(C(C)(C#N)Cc3ccc(C)nc3)cc2[nH]c1=O (stereo not shown) [Compound 327]
46 | 501 nM | CCc1cc2ccc(C(C)(C#N)Cc3cccc(C#N)n3)cc2[nH]c1=O (stereo not shown) [Compound 329]
47 | 10000 nM | CCCn1ccnc1CC(C)(C#N)c1ccc2cc(CC)c(=O)[nH]c2c1 (stereo not shown) [Compound 335]
48 | 2510 nM | CCc1cc2ccc(C(C)(C#N)Cc3ccc4ccccc4n3)cc2[nH]c1=O (stereo not shown) [Compound 336]
49 | 5010 nM | CCc1cc2ccc(C(C)(C#N)Cc3nccn3CC)cc2[nH]c1=O (stereo not shown) [Compound 337]
50 | 2000 nM | CCc1cc2ccc(C(C)(C#N)Cc3nc4ccccc4n3C)cc2[nH]c1=O (stereo not shown) [Compound 338]
51 | 2000 nM | CCc1cc2ccc(C(C)(C#N)Cc3cccc(C)n3)cc2[nH]c1=O (stereo not shown) [Compound 343]
52 | 631 nM | CCc1cc2ccc(C(C)(C#N)Cc3cccc(Br)n3)cc2[nH]c1=O (stereo not shown) [Compound 344]
53 | 3980 nM | CCc1cc2ccc(C(C)(C#N)Cc3cccc(CO)n3)cc2[nH]c1=O (stereo not shown) [Compound 345]
54 | 2510 nM | CCc1cc2ccc(C(C)(C#N)Cc3ccc(OC)nc3)cc2[nH]c1=O (stereo not shown) [Compound 352]

Row | IC50 | SMILES
55 | 251 nM | CCc1cc2ccc(C(C)(C#N)Cc3cccc(OC)n3)cc2[nH]c1=O (stereo not shown) [Compound 353]
56 | 794 nM | CCc1cc2ccc(C(C)(C#N)Cc3cnc(OC)nc3Cl)cc2[nH]c1=O (stereo not shown) [Compound 356]
57 | 398 nM | CCc1cc2ccc(C(C)(C#N)Cc3cnc(OC)nc3OC)cc2[nH]c1=O (stereo not shown) [Compound 357]
58 | 2510 nM | CCc1cc2ccc(C(C)(C#N)Cc3cc(OC)nc(OC)n3)cc2[nH]c1=O (stereo not shown) [Compound 358]
59 | 501 nM | CCc1cc2ccc(C(C)(C#N)Cc3nc(Cl)cc(N(C)C)n3)cc2[nH]c1=O (stereo not shown) [Compound 359]
60 | 1260 nM | CCc1cc2ccc(C(C)(C#N)Cc3nccc(OC)n3)cc2[nH]c1=O (stereo not shown) [Compound 360]
61 | 5010 nM | CCc1cc2ccc(C(C)(C#N)Cc3cc(OCCOC)nc(C)n3)cc2[nH]c1=O (stereo not shown) [Compound 363]
62 | 794 nM | CCc1cc2ccc(C(C)(C#N)Cc3cc(N(C)C)nc(Cl)n3)cc2[nH]c1=O (stereo not shown) [Compound 364]
63 | 631 nM | CCc1cc2ccc(C(C)(C#N)Cc3cc(OC)nc(C)n3)cc2[nH]c1=O (stereo not shown) [Compound 366]
64 | 3980 nM | CCc1cc2ccc(C(C)(C#N)Cc3cc(OCCOC)nc(Cl)n3)cc2[nH]c1=O (stereo not shown) [Compound 367]
65 | 1260 nM | CCc1cc2ccc(C(C)(C#N)Cc3nc(C)cc(C)n3)cc2[nH]c1=O (stereo not shown) [Compound 368]
66 | 6310 nM | CCc1cc2ccc(C(C)(C#N)Cc3nccc(OCCOC)n3)cc2[nH]c1=O (stereo not shown) [Compound 369]
67 | 2510 nM | CCc1cc2ccc(C(C)(C#N)Cc3nc(Cl)cc(OCCOC)n3)cc2[nH]c1=O (stereo not shown) [Compound 370]
68 | 501 nM | CCc1cc2ccc(C(C)(C#N)Cc3cc(Cl)nc(Cl)c3)cc2[nH]c1=O (stereo not shown) [Compound 372]
69 | 10000 nM | CCc1cc2ccc(C(C)(C#N)Cc3cc(OC)ccn3)cc2[nH]c1=O (stereo not shown) [Compound 373]
70 | 631 nM | CCc1cc2ccc(C(C)(C#N)CC3CCc4ccccc4O3)cc2[nH]c1=O (stereo not shown) [Compound 399]

Same assay, conditions: Homo sapiens, PC-3, PC3 cells; read-out: PC3 antiproliferative activity pIC50 (converted)

Row | IC50 | SMILES
71 | 5010 nM | CCc1cc2ccc(C(C#N)(CC)Cc3ccccc3)cc2[nH]c1=O (stereo not shown) [Compound 32]
72 | 2510 nM | COc1ccccc1-c1nc(CC(C)(C#N)c2ccc3cc(C)c(=O)[nH]c3c2)no1 (stereo not shown) [Compound 33]
73 | 631 nM | Cc1cc2ccc(C(C)(C#N)Cc3cccc(C#N)c3)cc2[nH]c1=O (stereo not shown) [Compound 34]
74 | > 10000 nM | Cc1cc2ccc([C@@](C)(C#N)Cc3cccc(C#N)c3)cc2[nH]c1=O [Compound 35]
75 | 200 nM | Cc1cc2ccc([C@](C)(C#N)Cc3cccc(C#N)c3)cc2[nH]c1=O [Compound 36]
76 | 398 nM | Cc1cc2ccc(C(C)(C#N)Cc3cccc(Cl)c3)cc2[nH]c1=O (stereo not shown) [Compound 37]
77 | > 10000 nM | CC(C)c1cc2ccc(C(C)(C#N)Cc3ccccc3)cc2[nH]c1=O (stereo not shown) [Compound 38]
78 | > 10000 nM | CC(=O)c1cc2ccc(C(C)(C#N)Cc3ccccc3)cc2[nH]c1=O (stereo not shown) [Compound 39]

Same assay, conditions: PC3 cells, Alamar Blue

Row | PC3 antiproliferative activity pIC50 | SMILES
79 | 6.8 | CCc1cc2ccc(C(C)(C#N)Cc3cccc(C#N)n3)cc2[nH]c1=O (single isomer, unassigned) [Compound 207]
